Test results reported in patent US6605611B2, “Base analogues” (Nycomed Amersham PLC, priority 1997, dated 2003).

Tests used:
Assay type in all cases: biochemical
[1] = target: terminal deoxynucleotidyl transferase (Bos taurus, UniProt P06526); test: oligonucleotide tailing reaction with terminal deoxynucleotidyl transferase; details: 32 μM nucleotide, 25 U terminal deoxynucleotidyl transferase, 15 mer primer, 90 minutes at 37° C.
Description: 1-(2′-deoxy-5′-triphospho-β-D-ribofuranosyl)piperidino[2,3-d]pyrimidine-2(1H)-one (1.6), 6-methylamine-3-(5-triphospho-2-deoxy-β-D-erythro-pentofuranosyl)furano[2,3-d]pyrimidin-2-one) (3.3a) and 5-FAM-(6-methylamine-3-(5-triphospho-2-deoxy-β-D-erythro-pentofuranosyl)furano[2,3-d]pyrimidin-2-one) (3.3b), 6-methyl-N-(6-amino)-caproamide-3-(5-triphospho-2-deoxy-β-D-erythro-pentofuranosyl)furano[2,3-d]pyrimidin-2-one (4.3a) and 5-FAM-(6-methyl-N-(6-amino)-caproamide-3-(5-triphospho-2-deoxy-β-D-erythro-pentofuranosyl)furano[2,3-d]pyrimidin-2-one) (4.3b), 6-methylamine-3-(5-triphospho-2-deoxy-β-D-erythro-pentofuranosyl)pyrrolo[2,3-d]pyrimidin-2-one) (8.1), 6-methyl-N-(6-amino)-caproamide-3-(5-triphospho-2-deoxy-β-D-erythro-pentofuranosyl)pyrrolo[2,3-d]pyrimidin-2-one (10.1a), and the FAM and Cy5 of (10.1a, e.g. 10.1b and 10.1c) as substrates for terminal deoxynucleotidyl transferase. In order to test the ability of compounds (1.6), (3.3a), (3.3b), (4.3a), (4.3b), (8.1), (10.1a), (10.1b) and (10.1c) to be accepted by terminal deoxynucleotidyl transferase as a substrate, an oligonucleotide tailing reaction was performed.
A 15 mer primer (sequence: 5′ TGC ATG TGC TGG AGA 3′) and 8 to 32 base oligonucleotide markers were 5′ end labelled with [γ^33P] ATP and T4 polynucleotide kinase. Reactions were boiled for 5 minutes after labelling to remove any PNK activity. Four picomoles of the labelled primer, 25 U terminal deoxynucleotidyl transferase and 32 μM dATP, dCTP, dGTP, dTTP or compounds (1.6), (3.3a), (3.3b), (4.3a), (4.3b), (8.1), (10.1a), (10.1b) and (10.1c) were incubated in 25 μl 100 mM cacodylate buffer pH7.2, 2 mM CoCl2 and 0.2 mM 2-mercaptoethanol for 90 minutes at 37° C. The reactions were stopped by the addition of formamide stop solution and the reaction products run on a 19% polyacrylamide 7M urea gel with the labelled markers. Autoradiography using Biomax film was carried out on the dry gel.

[2] = system: exonuclease free Klenow fragment of DNA polymerase I (EFK); test: primer extension assay, EFK, Templates 1 and 2, Example 13; details: for substrate for the polymerase (EFK), incorporation: 20 μM total nucleotide, 37° C. for 3 minutes, Template 1 or Template 2; for substrate quality compared with the analogue with the shorter linker arm: EFK primer extension, 20 μM
Procedure: A primer extension assay was used to evaluate compounds (3.3a), (3.3b), (4.3a),(4.3b) and (8.1) as substrates for exonuclease free Klenow fragment of DNA polymerase I (EFK). The assay used a ^33P 5′ end labelled 15 mer primer hybridised to one of two 24 mer templates. The sequences of the primer and templates are:
(§1) One picomole ^33P labelled primer was hybridised to 2 picomoles of template in ×2 Klenow buffer. To this was added either 20 μM dCTP or 20 μM (3.3a) or 20 μM (3.3b) or 20 μM (4.3a) or 20 μM (4.3b) or 20 μM (8.1) or mixtures of dCTP and compound (3.3a) or (3.3b) or (4.3a) or (4.3b) or (8.1) keeping the total nucleotide concentration fixed at 20 μM. One unit EFK and 2 mU inorganic pyrophosphatase were used per reaction. Primer alone, primer plus template plus enzyme controls were also carried out. The reactions were incubated at 37° C. for 3 minutes. Reactions were then stopped by the addition of formamide/EDTA stop solution. Reaction products were separated on a 19% polyacrylamide 7M urea gel and the product fragments sized by comparison with a ^33P labelled 8 to 32 base oligonucleotide ladder after exposure to Kodak Biomax autoradiography film.

[3] = system: AMV reverse transcriptase; test: 1st strand cDNA synthesis, incorporation monitored by 33P-dATP spike, TLC and gel
Procedure: Incorporation of compound (10.1a) into 1st strand cDNA was carried out using a balance of dCTP such that the total concentration of (10.1a) and dCTP was equivalent to each of the other three dNTP concentrations.
(10.1a) was used at three different percentages
These reactions were compared with reactions including Cy5 labelled dCTP. All reactions were monitored by carrying out the reaction in duplicate and monitoring one of the duplicates with a spike of ^33P-dATP.
1 μl ^33P-dATP-active samples only
1 μl AMV reverse transcriptase 20 U/μl
Incubate at 42° C. for 2½ hours
The cDNA reactions were monitored by TLC as follows
1 μl of sample was spotted onto PEI cellulose TLC plates and run in 1.25M Potassium phosphate buffer
Samples were then purified by Qiagen column and eluted in 50 μl of water. The active cDNA products were analysed on a 6% polyacrylamide gel
The gel was then covered in Saran wrap and exposed to phosphorscreen for 1 hour. Phosphorscreen analysis was carried out on the Molecular Dynamics Storm 860 instrument.

[4] = system: exonuclease free Klenow fragment of DNA polymerase I (EFK); test: primer extension assay, EFK, Example 12; details: 20 μM total nucleotide, 37° C. for 3 minutes, 24 mer template
Procedure: A primer extension assay was used to evaluate compounds (10.1a), (10.1b) and (10.1c) as substrates for exonuclease free Klenow fragment of DNA polymerase I (EFK). The assay used a ^33P 5′ end labelled 15 mer primer hybridised to a 24 mer template. The sequences of the primer and template are:
as §1, with “μM (10.1a)” for “μM (3.3a)”, “μM (10.1b)” for “μM (3.3b)”, “μM (10.1c)” for “μM (4.3a) or 20 μM (4.3b) or 20 μM (8.1)”, “compound (10.1a)” for “compound (3.3a)”, “or compound (10.1b)” for “or (3.3b)”, “or compound (10.1c)” for “or (4.3a) or (4.3b) or (8.1)”

[5] = target: Thermus aquaticus DNA polymerase (Thermus aquaticus, UniProt P19821); test: incorporation into arabidopsis DNA by PCR; details: 5% to 50% (10.1a), balance dCTP, 35 cycles
Procedure: Incorporation of (10.1a) into arabidopsis DNA by PCR was carried out as follows:
The (10.1a) was used in the PCR at various percentages with a balance of dCTP such that the total concentration of (10.1a) and dCTP was equivalent to each of the other three base dNTP's. The percentages of (10.1a) used were:
After PCR, the samples were purified by Qiagen column and analysed by 1% agarose gel.

[6] = system: exonuclease free Klenow fragment of DNA polymerase I (EFK); test: primer extension assay, EFK, Example 14; details: 80 μM (1.6), with or without 4 μM dNTPαS, 37° C. for 3 minutes
Procedure: A primer extension assay was used to evaluate compound (1.6) as a substrate for exonuclease free Klenow fragment of DNA polymerase I (EFK). The assay used a ^33P 5′ end labelled 15 mer primer hybridised to a 24 mer template. The sequences of the primer and template are:
One picomole ^33P labelled primer was hybridised to 2 picomoles of template in ×2 Klenow buffer. To this was added either 4 μM dNTPαS or 80 μM (1.6) or a mixture of 4 μM dNTPαS 80 μM (1.6). One unit EFK and 2 mU inorganic pyrophosphatase were used per reaction. Primer alone, primer plus template plus enzyme controls were also carried out. The reactions were incubated at 37° C. for 3 minutes. Reactions were then stopped by the addition of formamide I EDTA stop solution. Reaction products were separated on a 19% polyacrylamide 7M urea gel and the product fragments sized by comparison with a ^33P labelled 8 to 32 base oligonucleotide ladder after exposure to Kodak Biomax autoradiography film.

Sequence of terminal deoxynucleotidyl transferase (P06526 whole entry): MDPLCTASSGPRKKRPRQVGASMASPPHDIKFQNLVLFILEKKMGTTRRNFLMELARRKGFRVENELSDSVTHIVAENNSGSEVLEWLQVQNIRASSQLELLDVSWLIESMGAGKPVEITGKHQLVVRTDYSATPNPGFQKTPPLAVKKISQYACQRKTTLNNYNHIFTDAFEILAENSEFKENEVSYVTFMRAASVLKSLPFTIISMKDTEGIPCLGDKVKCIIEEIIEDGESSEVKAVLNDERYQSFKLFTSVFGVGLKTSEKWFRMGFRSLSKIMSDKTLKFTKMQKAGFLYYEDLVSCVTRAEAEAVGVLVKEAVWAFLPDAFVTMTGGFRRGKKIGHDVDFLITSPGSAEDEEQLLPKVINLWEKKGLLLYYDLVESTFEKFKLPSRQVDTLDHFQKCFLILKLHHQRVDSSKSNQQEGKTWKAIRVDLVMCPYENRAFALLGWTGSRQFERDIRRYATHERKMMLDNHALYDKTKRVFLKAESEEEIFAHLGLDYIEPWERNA
Sequence of Thermus aquaticus DNA polymerase (P19821 whole entry): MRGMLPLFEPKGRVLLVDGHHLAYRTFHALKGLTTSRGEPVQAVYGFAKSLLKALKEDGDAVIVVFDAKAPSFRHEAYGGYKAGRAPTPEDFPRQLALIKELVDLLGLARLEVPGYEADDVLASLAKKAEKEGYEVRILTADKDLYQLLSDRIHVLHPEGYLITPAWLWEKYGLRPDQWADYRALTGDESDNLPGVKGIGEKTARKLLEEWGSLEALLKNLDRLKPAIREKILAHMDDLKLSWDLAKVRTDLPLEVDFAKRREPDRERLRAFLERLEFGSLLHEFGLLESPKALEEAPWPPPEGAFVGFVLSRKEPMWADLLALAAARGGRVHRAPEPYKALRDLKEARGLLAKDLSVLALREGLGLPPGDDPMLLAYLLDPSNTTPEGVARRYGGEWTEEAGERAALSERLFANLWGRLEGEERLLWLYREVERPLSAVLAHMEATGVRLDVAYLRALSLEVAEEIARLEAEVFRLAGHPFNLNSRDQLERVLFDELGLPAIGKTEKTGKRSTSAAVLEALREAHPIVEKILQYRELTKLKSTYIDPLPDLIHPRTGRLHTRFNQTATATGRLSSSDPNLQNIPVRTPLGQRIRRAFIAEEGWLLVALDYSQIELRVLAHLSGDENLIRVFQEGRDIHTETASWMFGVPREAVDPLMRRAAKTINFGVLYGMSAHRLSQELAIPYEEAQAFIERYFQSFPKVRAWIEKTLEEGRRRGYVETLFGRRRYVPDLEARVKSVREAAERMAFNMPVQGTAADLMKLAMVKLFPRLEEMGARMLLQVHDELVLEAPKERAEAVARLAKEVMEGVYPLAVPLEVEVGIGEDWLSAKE

Compound	3′ tail length [1]	substrate for the polymerase (EFK), incorporation [2]	further results
Cy5-(6-methyl-N-(6-amino)-caproamide-3-(triphospho-2-2deoxy-β-D-erythro-pentofuranosyl)pyrrolo[2,3-d]pyrimidin-2-one [Compound 10.1c]	greater than 30 bases	–	–
NCc1cc2cn([C@H]3C[C@H](O)[C@@H](COP(=O)(O)OP(=O)(O)OP(=O)(O)O)O3)c(=O)nc2o1 [Compound 3.3a]	–	not a substrate for the polymerase	–
NCc1cc2cn([C@H]3C[C@H](O)[C@@H](COP(=O)(O)OP(=O)(O)OP(=O)(O)O)O3)c(=O)nc2[nH]1 [Compound 8.1]	–	a substrate for the polymerase being able to substitute for dCTP	–
NCCCCCC(=O)NCc1cc2cn([C@H]3C[C@H](O)[C@@H](COP(=O)(O)OP(=O)(O)OP(=O)(O)O)O3)c(=O)nc2[nH]1 [Compound 10.1a, 6-methyl-N-(6-amino)-caproamide-3-(5-triphospho-2-deoxy-β-D-erythro-pentofuranosyl)pyrrolo[2,3-d]pyrimidin-2-one]	7-8 bases	–	33P-dATP Incorporation (TLC) ([3]; 50% (10.1a), balance dCTP): 23.2%; 33P-dATP Incorporation (TLC) ([3]; 75% (10.1a), balance dCTP): 16.5%; 33P-dATP Incorporation (TLC) ([3]; 100% (10.1a), no dCTP): 11.5%; substrate quality compared with the analogue with the shorter linker arm [2]: better substrate than (8.1); substrate for the polymerase (EFK), incorporation in place of dCTP [4]: surprisingly good substrate; formation of PCR product, agarose gel analysis [5]: resulted in the formation of PCR product
NCCCCCC(=O)NCC=Cc1cn([C@H]2C[C@H](O)[C@@H](COP(=O)(O)OP(=O)(O)OP(=O)(O)O)O2)c(=O)nc1N [5-allylaminocaproamide dCTP, reference compound]	–	–	incorporation by the polymerase ([2]; under similar assay conditions): did not show any incorporation
O=c1nc2c(cn1C1CC(O)C(COP(=O)(O)OP(=O)(O)OP(=O)(O)O)O1)CCCN2 [Compound 1.6, 1-(2′-deoxy-5′-triphospho-β-D-ribofuranosyl)piperidino[2,3-d]pyrimidine-2(1H)-one]	equivalent to those produced by dCTP at the same concentration	–	substrate for EFK, incorporation in place of dCTP [6]: a substrate for EFK and that it was efficiently incorporated in place of dCTP
O=C(NCc1cc2cn([C@H]3C[C@H](O)[C@@H](COP(=O)(O)OP(=O)(O)OP(=O)(O)O)O3)c(=O)nc2o1)c1ccc2c(c1)C(=O)OC21c2ccc(O)cc2Oc2cc(O)ccc21 [Compound 3.3b, 5-Carboxyfluoresceinyl-(6-methylamine-3-(5-triphospho-2-deoxy-β-D-erythro-pentofuranosyl)furano[2,3-d]pyrimidin-2-one)]	–	not a substrate for the polymerase using either of the Templates	–
O=C(CCCCCNC(=O)c1ccc2c(c1)C(=O)OC21c2ccc(O)cc2Oc2cc(O)ccc21)NCc1cc2cn([C@H]3C[C@H](O)[C@@H](COP(=O)(O)OP(=O)(O)OP(=O)(O)O)O3)c(=O)nc2[nH]1 [Compound 10.1b, 5-FAM-(6-methyl-N-(6-amino)-caproamide-3-(5-triphospho-2-deoxy-β-D-erythro-pentofuranosyl)pyrrolo[2,3-d]pyrimidin-2-one)]	18-24 bases	–	–
O=C(CCCCCNC(=O)c1ccc2c(c1)C(=O)OC21c2ccc(O)cc2Oc2cc(O)ccc21)NCc1cc2cn([C@H]3C[C@H](O)[C@@H](COP(=O)(O)OP(=O)(O)OP(=O)(O)O)O3)c(=O)nc2o1 [Compound 4.3b, 5-FAM-(6-methyl-N-(6-amino)-caproamide-3-(5-triphospho-2-deoxy-β-D-erythro-pentofuranosyl)furano[2,3-d]pyrimidin-2-one)]	9-14 bases	only incorporated in reactions using Template 2	–
NCCCCCC(=O)NCc1cc2cn([C@H]3C[C@H](O)[C@@H](COP(=O)(O)OP(=O)(O)OP(=O)(O)O)O3)c(=O)nc2o1 [Compound 4.3a, 6-Methyl-N-(6-amino)-caproamide-3-(5-triphospho-2-deoxy-β-D-erythro-pentofuranosyl)furano[2,3-d]pyrimidin-2-one]	7-9 bases	a substrate for the polymerase again being able to replace dCTP	substrate quality compared with the analogue with the shorter linker arm [2]: better substrate than (3.3a)
